Results as given in ChEMBL document CHEMBL1201862, “PubChem BioAssay data set” (2004).
Several values for one entry are separate records, joined by “and”; a condition that tells them apart may be missing. Identical values can stand only once.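 A five-concentration, 48-hour dose response in 96-well plates underlies each endpoint, interpolated linearly between surrounding concentrations. Abbreviation: GI50, concentration required for 50% inhibition of growth.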 Activity calls are given as the source filed them. Rule as the data show it: active = GI50 up to about 1.1 µM and inactive = higher.

Legend:
Assay in all cases: DTP human tumour cell line panel, 48 h
DMS-273 = tested on: DMS-273
DLD-1 = tested on: DLD-1
SNB-78 = tested on: SNB-78
HOP-18 = tested on: HOP-18
LXFL 529 = tested on: LXFL 529
RXF 631 = tested on: RXF 631
XF498 = tested on: XF498
DMS-114 = tested on: DMS-114
M19-MEL = tested on: M19-MEL

For `CCN(CC)CC(C)(C)C(=O)/C=C/c1cccc(/C=C/C(=O)C(C)(C)CN(CC)CC)c1`, the GI50 (DMS-273) was 0.476 µM (active), the GI50 (DLD-1) was 0.237 µM (active) and the GI50 (SNB-78) was 2.21 µM (inactive). For the same molecule, the GI50 (HOP-18) was 1.51 µM (inactive), the GI50 (LXFL 529) was 0.331 µM (active) and the GI50 (RXF 631) was 1.09 µM (active). The GI50 (XF498) was 0.409 µM (active), the GI50 (DMS-114) was 0.307 µM (active) and the GI50 (M19-MEL) was 0.959 µM (active).

For `Cc1ccccc1/N=N/c1c(-c2ccccc2)nn(C(=O)CC(=O)Nc2cccc(Cl)c2)c1-c1ccccc1`, the GI50 (DMS-273) was 20 µM (inactive), the GI50 (DLD-1) was 20.4 µM (inactive) and the GI50 (SNB-78) was 23.5 µM (inactive). For the same molecule, the GI50 (HOP-18) was 25.7 µM (inactive), the GI50 (LXFL 529) was 21.6 µM (inactive) and the GI50 (XF498) was 28.2 µM (inactive). For the same molecule, the GI50 (DMS-114) was 14.9 µM (inactive) and the GI50 (M19-MEL) was > 10 µM (inactive).

For `Cc1cc2c(c(C#N)c1C)NC(=O)CCC2=O`, the GI50 (DMS-273) was > 100 µM (inactive), the GI50 (DLD-1) was > 100 µM (inactive) and the GI50 (SNB-78) was > 100 µM (inactive). For the same molecule, the GI50 (LXFL 529) was > 100 µM (inactive), the GI50 (RXF 631) was > 100 µM (inactive) and the GI50 (XF498) was > 100 µM (inactive). The GI50 (DMS-114) was > 100 µM (inactive) and the GI50 (M19-MEL) was > 100 µM (inactive).

For `C=CC1(C(=O)O)CCC(C(C)(C)C)CC1` (stereo unspecified), the GI50 (DMS-273) was > 100 µM (inactive), the GI50 (DLD-1) was > 100 µM (inactive) and the GI50 (SNB-78) was > 100 µM (inactive). For the same molecule, the GI50 (HOP-18) was > 100 µM (inactive), the GI50 (LXFL 529) was > 100 µM (inactive) and the GI50 (RXF 631) was > 100 µM (inactive). The GI50 (XF498) was > 100 µM (inactive), the GI50 (DMS-114) was > 100 µM (inactive) and the GI50 (M19-MEL) was > 100 µM (inactive).

In the case of `CC(=O)OCC12CC(CC1OC(C)=O)c1ccccc12` (stereo unspecified), the GI50 (DMS-273) is reported as > 100 µM (inactive), the GI50 (HOP-18) is reported as > 100 µM (inactive) and the GI50 (LXFL 529) is reported as > 100 µM (inactive). For the same molecule, the GI50 (RXF 631) was > 100 µM (inactive), the GI50 (DMS-114) was > 100 µM (inactive) and the GI50 (M19-MEL) was > 100 µM (inactive).

`C[C@@H]1C[C@@H]2C(=O)N(c3ccccc3)C(=O)[C@@H]2c2[nH]c3ccc(Br)cc3c21` was tested, and the GI50 (DMS-273) was > 100 µM (inactive), the GI50 (DLD-1) was 44.2 µM (inactive) and the GI50 (SNB-78) was 25.1 µM (inactive). The GI50 (HOP-18) was 24.1 µM (inactive), the GI50 (LXFL 529) was 37.6 µM (inactive) and the GI50 (RXF 631) was 28.8 µM (inactive). The GI50 (XF498) was 26.1 µM (inactive), the GI50 (DMS-114) was 53 µM (inactive) and the GI50 (M19-MEL) was 70.8 µM (inactive).

With `COc1ccccc1/C=N/C12CC3CC(CC(C3)C1)C2` the GI50 (DMS-273) was > 100 µM (inactive), the GI50 (DMS-114) was > 10 µM (inactive) and the GI50 (M19-MEL) was > 100 µM (inactive).

In the case of `N#CC(c1ccccc1)c1nc2ccc(N)cc2[n+]([O-])c1C(C#N)c1ccccc1` (stereo unspecified), the GI50 (DMS-273) is reported as 45.9 µM (inactive), the GI50 (DLD-1) is reported as 43.6 µM (inactive) and the GI50 (SNB-78) is reported as > 100 µM (inactive). The GI50 (HOP-18) was > 100 µM (inactive), the GI50 (LXFL 529) was 51.1 µM (inactive) and the GI50 (RXF 631) was 86.9 µM (inactive). The GI50 (XF498) was 48.5 µM (inactive) and the GI50 (M19-MEL) was 55.1 µM (inactive).

`C1=Cc2nc1c(-c1ccncc1)c1ccc([n-]1)c(-c1ccncc1)c1nc(c(-c3ccncc3)c3ccc([n-]3)c2-c2ccncc2)C=C1.[Zn+2]` was tested, and the GI50 (DLD-1) was > 100 µM (inactive), the GI50 (SNB-78) was > 100 µM (inactive) and the GI50 (LXFL 529) was > 100 µM (inactive). The GI50 (RXF 631) was > 100 µM (inactive), the GI50 (XF498) was > 100 µM (inactive) and the GI50 (DMS-114) was > 100 µM (inactive). For the same molecule, the GI50 (M19-MEL) was > 100 µM (inactive).

With `C[C@@H]1CC[C@@]2(C)OC(c3ccccc3)[C@H](CO)N2C1=O` (stereo partly specified) the GI50 (DMS-273) was > 100 µM (inactive), the GI50 (DLD-1) was > 100 µM (inactive) and the GI50 (SNB-78) was > 100 µM (inactive). For the same molecule, the GI50 (HOP-18) was > 100 µM (inactive), the GI50 (XF498) was > 100 µM (inactive) and the GI50 (DMS-114) was > 100 µM (inactive). For the same molecule, the GI50 (M19-MEL) was > 100 µM (inactive).

With `O=c1ncccn1[C@@H]1O[C@H](CO)[C@@H](O)[C@@H]1F` the GI50 (DMS-273) was > 100 µM (inactive), the GI50 (SNB-78) was > 100 µM (inactive) and the GI50 (HOP-18) was > 100 µM (inactive). For the same molecule, the GI50 (LXFL 529) was > 100 µM (inactive), the GI50 (RXF 631) was > 51.6 µM (inactive) and the GI50 (XF498) was > 100 µM (inactive). The GI50 (DMS-114) was > 100 µM (inactive) and > 58.7 µM (inactive) and the GI50 (M19-MEL) was > 100 µM (inactive).

`CCOC(=O)C(Cc1cn(S(=O)(=O)c2ccccc2)c2ccccc12)(NC(C)=O)C(=O)OCC` was tested, and the GI50 (DMS-273) was 35 µM (inactive), the GI50 (DLD-1) was 40.1 µM (inactive) and the GI50 (LXFL 529) was 27.7 µM (inactive). The GI50 (XF498) was 29.7 µM (inactive), the GI50 (DMS-114) was 23.9 µM (inactive) and the GI50 (M19-MEL) was 40.7 µM (inactive).

With `O=C(O)CCCc1ccc(N(CCCl)CCCl)cc1` [CHLORAMBUCIL] the GI50 (DMS-273) was 23.7 µM (inactive), the GI50 (DLD-1) was 104 µM (inactive) and the GI50 (HOP-18) was > 81.1 µM (inactive). The GI50 (LXFL 529) was 95.5 µM (inactive), the GI50 (RXF 631) was 86.9 µM (inactive) and the GI50 (XF498) was 55.1 µM (inactive). For the same molecule, the GI50 (DMS-114) was 45.1 µM (inactive) and the GI50 (M19-MEL) was 87.7 µM (inactive).
